Earlier results in patent publication US20120282652A1, “PREPARATION OF PEPTIDE MIXTURES BY PROTEASE CATALYSIS DESIGNED TO PROVIDE USEFUL BIOLOGICAL AND PHYSICAL PROPERTIES” (priority 2011, published 2012).

How the values were obtained:
[1] = test system: S. aureus, E. coli, and P. aeruginosa; details: peptide synthesized by traditional chemical methods
[2] = Cheng et al.

Substance: [γ-Glu-Cys]2-Gly
- Cd(II) at which binding saturated (absorbance at 240 nm, Mehra): 0.5 equivalents
- Cd(II)/peptide ratio up to which absorption intensity is enhanced (absorption at 250 nm, Kobayashi and Yoshimura): ≤ 1.4

Substance: LKLLKKLLKKLKKLLKKL [amphipathic model peptide synthesized by traditional chemical methods]
- antimicrobial activity compared with diblock KKKKKKKKKLLLLLLLLL or alternating KLKLKLKLKLKLKLKLKL [1]: better antimicrobial activity

Substance: [γ-Glu-Cys]4-Gly [[(γ-EC)4]-Gly]
- order of binding efficiency of the metals [2]: Cd>Zn>Ni>Co
